25 molecules from patent US7728003B2, “5-oxo-5,8-dihydro-pyrido-pyrimidines as inhibitors of c-fms kinase” (Janssen Pharmaceutica N.V., priority 2005, dated 2010) can be followed below.

This assay addresses c-fms (Homo sapiens, UniProt P07333). In words: c-fms autophosphorylation, fluorescence polarization competition immunoassay. To be noted: 10 nM c-fms, 1 mM ATP; for inhibition at 0.1 µM: test concentration 0.1 μM, read-out: c-fms Autophosphorylation Percent Inhibition, % @ 0.1 μM; for inhibition at 1 µM: test concentration 1 μM, read-out: c-fms Autophosphorylation Percent Inhibition, % @ 1 μM. The format is biochemical. The method, then: The assay buffer used was 100 mM 4-(2-hydroxyethyl)piperazine 1-ethanesulfonic acid (HEPES), pH 7.5, 1 mM 1,4-dithio-DL-threitol (DTT), 0.01% (v/v) Tween-20. Compounds were diluted in assay buffer containing 4% dimethylsulfoxide (DMSO) just prior to the assay. To each well, 5 μL of compound were added followed by the addition of 3 μL of a mix containing 33 nM c-fms and 16.7 mM MgCl2 (Sigma) in assay buffer. The kinase reaction was initiated by adding 2 μL of 5 mM ATP (Sigma) in assay buffer. The final concentrations in the assay were 10 nM c-fms, 1 mM ATP, 5 mM MgCl2, 2% DMSO. Control reactions were ran in each plate: in positive and negative control wells, assay buffer (made 4% in DMSO) was substituted for the compound; in addition, positive control wells received 1.2 μL of 50 mM ethylenediaminetetraaceticacid (EDTA).
The plates were incubated at room temperature for 45 min. At the end of the incubation, the reaction was quenched with 1.2 μL of 50 mM EDTA (EDTA was not added to the positive control wells at this point; see above). Following a 5-min incubation, each well received 10 μL of a 1:1:3 mixture of anti-phosphotyrosine antibody, 10X, PTK green tracer, 10X (vortexed), FP dilution buffer, respectively (all from PanVera, cat. # P2837). The plate was covered, incubated for 30 min at room temperature and the fluorescence polarization was read on the Analyst. The instrument settings were: 485 nm excitation filter; 530 nm emission filter; Z height: middle of well; G factor: 0.93.
The percent inhibition is shown in Table 1 at the indicated test concentration. The IC50 shown in Table 2 are averages of three independent measurements.

Chain of c-fms (P07333 20-972): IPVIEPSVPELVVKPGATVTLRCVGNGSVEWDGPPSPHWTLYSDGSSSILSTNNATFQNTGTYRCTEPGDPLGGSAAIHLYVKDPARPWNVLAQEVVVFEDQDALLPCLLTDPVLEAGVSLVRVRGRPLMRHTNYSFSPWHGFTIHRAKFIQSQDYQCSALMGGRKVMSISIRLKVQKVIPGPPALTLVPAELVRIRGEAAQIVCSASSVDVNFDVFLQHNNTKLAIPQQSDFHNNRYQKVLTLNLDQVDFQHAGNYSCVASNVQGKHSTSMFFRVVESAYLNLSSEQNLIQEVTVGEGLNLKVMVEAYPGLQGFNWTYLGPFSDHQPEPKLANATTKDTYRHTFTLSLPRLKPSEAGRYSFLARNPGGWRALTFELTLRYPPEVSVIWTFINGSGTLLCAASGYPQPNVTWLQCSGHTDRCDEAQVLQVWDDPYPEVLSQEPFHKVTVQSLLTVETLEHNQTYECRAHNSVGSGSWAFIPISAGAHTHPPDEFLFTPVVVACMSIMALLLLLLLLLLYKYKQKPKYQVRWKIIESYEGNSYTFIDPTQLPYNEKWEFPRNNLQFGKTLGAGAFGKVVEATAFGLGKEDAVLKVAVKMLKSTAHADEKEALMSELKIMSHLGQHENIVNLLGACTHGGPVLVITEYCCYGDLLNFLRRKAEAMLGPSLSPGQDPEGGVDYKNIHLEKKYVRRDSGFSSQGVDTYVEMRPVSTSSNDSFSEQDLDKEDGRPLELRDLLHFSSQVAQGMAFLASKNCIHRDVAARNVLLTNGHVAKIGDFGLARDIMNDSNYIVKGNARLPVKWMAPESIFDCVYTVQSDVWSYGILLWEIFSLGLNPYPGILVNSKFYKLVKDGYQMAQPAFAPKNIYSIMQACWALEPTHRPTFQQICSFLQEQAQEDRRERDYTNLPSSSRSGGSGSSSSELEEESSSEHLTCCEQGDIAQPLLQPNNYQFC

One may read the inhibition as the drop in the measured response relative to a control, in per cent. Regarding `COCCNc1ncc2c(=O)c(C(=O)NOC)cn(C3CCCCC3)c2n1` [Cpd 47, 8-Cyclohexyl-2-(2-methoxy-ethylamino)-5-oxo-5,8-dihydro-pyrido[2,3-d]pyrimidine-6-carboxylic acid methoxy-amide], the inhibition at 0.1 µM was 31% and the inhibition at 1 µM stood at 57%. For `NC(=O)c1cn(-c2ccc3c(c2)CCC3)c2nc(NCCCN3CCCC3)ncc2c1=O` [Cpd 9, 8-Indan-5-yl-5-oxo-2-(3-pyrrolidin-1-yl-propylamino)-5,8-dihydro-pyrido[2,3-d]pyrimidine-6-carboxylic acid amide] the same measures were 16% and 45%. For the molecule `CONC(=O)c1cn(-c2ccc3c(c2)CCC3)c2nc(NCc3cc(OC)cc(OC)c3)ncc2c1=O` [Cpd 27, 2-(3,5-Dimethoxy-benzylamino)-8-indan-5-yl-5-oxo-5,8-dihydro-pyrido[2,3-d]pyrimidine-6-carboxylic acid methoxy-amide], the inhibition at 0.1 µM amounted to 15% and the inhibition at 1 µM worked out at 41%.

As for `CNC(=O)c1cn(C2CCCCC2)c2nc(NCCN3CCCCC3)ncc2c1=O` [Cpd 59, 8-Cyclohexyl-5-oxo-2-(2-piperidin-1-yl-ethylamino)-5,8-dihydro-pyrido[2,3-d]pyrimidine-6-carboxylic acid methylamide], the inhibition at 0.1 µM is 5% and the inhibition at 1 µM is 11%.

For `CNC(=O)c1cn(-c2ccc3c(c2)CCC3)c2nc(NCCCN3CCOCC3)ncc2c1=O` [Cpd 13, 8-Indan-5-yl-2-(3-morpholin-4-yl-propylamino)-5-oxo-5,8-dihydro-pyrido[2,3-d]pyrimidine-6-carboxylic acid methylamide], the inhibition at 0.1 µM was determined as 7% and the inhibition at 1 µM amounted to 27%. Consider `CNC(=O)c1cn(-c2ccc3c(c2)CCC3)c2nc(NCCCN3CCN(C)CC3)ncc2c1=O` [Cpd 15, 8-Indan-5-yl-2-[3-(4-methyl-piperazin-1-yl)-propylamino]-5-oxo-5,8-dihydro-pyrido[2,3-d]pyrimidine-6-carboxylic acid methylamide], for which the inhibition at 0.1 µM was 8% and the inhibition at 1 µM was 29%. `CONC(=O)c1cn(C2CCCCC2)c2nc(NCCN3CCCCC3)ncc2c1=O` [Cpd 50, 8-Cyclohexyl-5-oxo-2-(2-piperidin-1-yl-ethylamino)-5,8-dihydro-pyrido[2,3-d]pyrimidine-6-carboxylic acid methoxy-amide]: the inhibition at 0.1 µM is 3% and the inhibition at 1 µM was found to be 20%.

As to `COCCCNc1ncc2c(=O)c(C(=O)NOC)cn(-c3ccc4c(c3)CCC4)c2n1` [Cpd 21, 8-Indan-5-yl-2-(3-methoxy-propylamino)-5-oxo-5,8-dihydro-pyrido[2,3-d]pyrimidine-6-carboxylic acid methoxy-amide], the inhibition at 0.1 µM was 50% and the inhibition at 1 µM came out at 82%.

What is called IC50 is the point on the concentration scale where inhibition reaches its midpoint. Under “average of three independent measurements”, `NC(=O)c1cn(-c2ccc3c(c2)CCC3)c2nc(NCCCN3CCOCC3)ncc2c1=O` [Cpd 5] came in with an IC50 of 2.6 µM. In the case of `CONC(=O)c1cn(C2CCCCC2)c2nc(NCCCN3CCCC3)ncc2c1=O` [Cpd 46, 8-Cyclohexyl-5-oxo-2-(3-pyrrolidin-1-yl-propylamino)-5,8-dihydro-pyrido[2,3-d]pyrimidine-6-carboxylic acid methoxy-amide], the inhibition at 0.1 µM stood at 28% and the inhibition at 1 µM is 51%. Consider `CN1CCN(CCCNc2ncc3c(=O)c(C(N)=O)cn(-c4ccc5c(c4)CCC5)c3n2)CC1` [Cpd 1, 8-Indan-5-yl-2-[4-(4-methyl-piperazin-1-yl)-propylamino]-5-oxo-5,8-dihydro-pyrido[2,3-d]pyrimidine-6-carboxylic acid amide], for which the inhibition at 0.1 µM stood at 24% and the inhibition at 1 µM is 69.1%.

Consider `NC(=O)c1cn(C2CCCCC2)c2nc(NCCN3CCCCC3)ncc2c1=O` [Cpd 38, 8-Cyclohexyl-5-oxo-2-(2-piperidin-1-yl-ethylamino)-5,8-dihydro-pyrido[2,3-d]pyrimidine-6-carboxylic acid amide], for which the inhibition at 0.1 µM was found to be 19% and the inhibition at 1 µM came to 56%. For `CONC(=O)c1cn(C2CCCCC2)c2nc(NCCN3CCCC3)ncc2c1=O` [Cpd 48, 8-Cyclohexyl-5-oxo-2-(2-pyrrolidin-1-yl-ethylamino)-5,8-dihydro-pyrido[2,3-d]pyrimidine-6-carboxylic acid methoxy-amide], in that order: 0% and 18%.

For `CONC(=O)c1cn(-c2ccc3c(c2)CCC3)c2nc(NCCCN(C)C)ncc2c1=O` [Cpd 20, 2-(3-Dimethylamino-propylamino)-8-indan-5-yl-5-oxo-5,8-dihydro-pyrido[2,3-d]pyrimidine-6-carboxylic acid methoxy-amide], the inhibition at 0.1 µM turned out to be 20% and the inhibition at 1 µM came out at 52%.

On to `CONC(=O)c1cn(C2CCCCC2)c2nc(NCCCN3CCOCC3)ncc2c1=O` [Cpd 43, 8-Cyclohexyl-2-(3-morpholin-4-yl-propylamino)-5-oxo-5,8-dihydro-pyrido[2,3-d]pyrimidine-6-carboxylic acid methoxy-amide], for which the inhibition at 0.1 µM was determined as 32% and the inhibition at 1 µM turned out to be 60%.

Regarding `COCCCNc1ncc2c(=O)c(C(=O)NOC)cn(C3CCCCC3)c2n1` [Cpd 44, 8-Cyclohexyl-2-(3-methoxy-propylamino)-5-oxo-5,8-dihydro-pyrido[2,3-d]pyrimidine-6-carboxylic acid methoxy-amide], the inhibition at 0.1 µM was 26% and the inhibition at 1 µM is 62%. Turning to `CONC(=O)c1cn(C2CCCCC2)c2nc(NCCN3CCOCC3)ncc2c1=O` [Cpd 51, 8-Cyclohexyl-2-(2-morpholin-4-yl-ethylamino)-5-oxo-5,8-dihydro-pyrido[2,3-d]pyrimidine-6-carboxylic acid methoxy-amide], the inhibition at 0.1 µM is 17% and the inhibition at 1 µM worked out at 44%. As for `COCCNc1ncc2c(=O)c(C(N)=O)cn(-c3ccc4c(c3)CCC4)c2n1` [Cpd 10, 8-Indan-5-yl-2-(2-methoxy-ethylamino)-5-oxo-5,8-dihydro-pyrido[2,3-d]pyrimidine-6-carboxylic acid amide], the inhibition at 0.1 µM was found to be 16% and the inhibition at 1 µM amounted to 41%. On to `COCCCNc1ncc2c(=O)c(C(N)=O)cn(C3CCCCC3)c2n1` [Cpd 31, 8-Cyclohexyl-2-(3-methoxy-propylamino)-5-oxo-5,8-dihydro-pyrido[2,3-d]pyrimidine-6-carboxylic acid amide], for which the inhibition at 0.1 µM came out at 25% and the inhibition at 1 µM was 62%.

Turning to `CONC(=O)c1cn(C2CCCCC2)c2nc(NCCCN3CCN(C)CC3)ncc2c1=O` [Cpd 45, 8-Cyclohexyl-2-[3-(4-methyl-piperazin-1-yl)-propylamino]-5-oxo-5,8-dihydro-pyrido[2,3-d]pyrimidine-6-carboxylic acid methoxy-amide], the inhibition at 0.1 µM came to 43% and the inhibition at 1 µM was 67%.

For the molecule `NC(=O)c1cn(-c2ccc3c(c2)CCC3)c2nc(NCCN3CCCCC3)ncc2c1=O` [Cpd 2, 8-Indan-5-yl-5-oxo-2-(2-piperidin-1-yl-ethylamino)-5,8-dihydro-pyrido[2,3-d]pyrimidine-6-carboxylic acid amide], the inhibition at 0.1 µM turned out to be 15% and the inhibition at 1 µM worked out at 20%. `NC(=O)c1cn(C2CCCCC2)c2nc(NCCN3CCOCC3)ncc2c1=O` [Cpd 39, 8-Cyclohexyl-2-(2-morpholin-4-yl-ethylamino)-5-oxo-5,8-dihydro-pyrido[2,3-d]pyrimidine-6-carboxylic acid amide]: the inhibition at 0.1 µM is 21% and the inhibition at 1 µM turned out to be 59%.

For `CONC(=O)c1cn(-c2ccc3c(c2)CCC3)c2nc(NCCCn3ccnc3)ncc2c1=O` [Cpd 19, 2-(3-Imidazol-1-yl-propylamino)-8-indan-5-yl-5-oxo-5,8-dihydro-pyrido[2,3-d]pyrimidine-6-carboxylic acid methoxy-amide], the inhibition at 0.1 µM was 36% and the inhibition at 1 µM was 70%. In the case of `COCCCNc1ncc2c(=O)c(C(N)=O)cn(-c3ccc4c(c3)CCC4)c2n1` [Cpd 7, 8-Indan-5-yl-2-(3-methoxy-propylamino)-5-oxo-5,8-dihydro-pyrido[2,3-d]pyrimidine-6-carboxylic acid amide], the inhibition at 0.1 µM stood at 17% and the inhibition at 1 µM amounted to 43%. For `CONC(=O)c1cn(C2CCCCC2)c2nc(NCCCN(C)C)ncc2c1=O` [Cpd 42, 8-Cyclohexyl-2-(3-dimethylamino-propylamino)-5-oxo-5,8-dihydro-pyrido[2,3-d]pyrimidine-6-carboxylic acid methoxy-amide] the same measures were 17% and 40%.
